Experimental data reported in US20070010670A1, “Nitrogen-containing fused ring compounds and use thereof” (Japan Tobacco Inc., priority 2004, published 2007).

target: T1, CYP2C9 (Homo sapiens, UniProt P11712); assay: CYP inhibitory test using human liver microsome; format: in vitro ADME; details: model substrate diclofenac, 37° C. 10 min, read-out: CYP2C9 inhibition IC50
T1 construct: Human liver microsome (20 mg protein/mL, 5 μL, Xenotech LLC, purchased from Lenexa KS); tissue Xenotech LLC; host or cells: human liver microsome
Method: Human liver microsome (20 mg protein/mL, 5 μL, Xenotech LLC, purchased from Lenexa KS) was suspended in 100 mM potassium phosphate buffer (70 μL, pH 7.4), mixed with a solution (0.5 μL) of the Example compound dissolved in DMSO and preincubated at 37° C. for 5 min. NADPH producing system coenzyme solution (β-nicotinamide adenine dinucleotide phosphate: 5.2 mM, D-glucose-6-phosphate: 13.2 mM, magnesium chloride: 13.2 mM, glucose-6-phosphate dehydrogenase: 1.8 U/mL) 25 μL, and a model substrate (CYP3A4: midazolam 1 mM, CYP2D6: bufuralol 1 mM, CYP2C9: diclofenac 2 mM) 0.5 μL dissolved in DMSO were added to start the reaction. After incubation at 37° C. for 10 min., acetonitrile (200 μL) containing an internal standard substance (propranolol 1 μM) was added and the mixture was centrifuged (room temperature, 3000 rpm, 20 min). The amount of the metabolite produced from each model substrate in the supernatant was measured by high performance liquid chromatography/mass spectrometry (LC/MS/MS) and each CYP enzyme activity was determined. The concentration showing 50% inhibition (IC50) was calculated relative to the enzyme activity without addition of Example compound (DMSO 0.5 μL added) as 100%.

T1 sequence (P11712 whole entry): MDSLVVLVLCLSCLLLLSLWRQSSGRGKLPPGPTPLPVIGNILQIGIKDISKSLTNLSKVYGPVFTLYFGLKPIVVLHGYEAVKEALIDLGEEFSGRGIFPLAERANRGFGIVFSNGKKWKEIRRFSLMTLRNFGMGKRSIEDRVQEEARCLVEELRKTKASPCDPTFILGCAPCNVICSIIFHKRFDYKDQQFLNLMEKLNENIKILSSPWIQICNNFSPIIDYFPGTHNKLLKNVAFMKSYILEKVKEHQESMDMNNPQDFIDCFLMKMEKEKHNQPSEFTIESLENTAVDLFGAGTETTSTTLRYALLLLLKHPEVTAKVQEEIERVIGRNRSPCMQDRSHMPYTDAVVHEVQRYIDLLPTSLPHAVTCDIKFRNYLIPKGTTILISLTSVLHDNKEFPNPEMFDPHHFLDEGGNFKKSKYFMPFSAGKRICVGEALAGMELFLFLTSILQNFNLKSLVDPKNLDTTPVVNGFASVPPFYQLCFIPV

SMILES | IC50
CN(C)S(=O)(=O)c1ccc2c(c1)N(C(=O)c1cc(Cl)c(O)c(Cl)c1)CCO2 [Example 35, 4-(3,5-dichloro-4-hydroxybenzoyl)-3,4-dihydro-2H-benzo[1,4]oxazine-6-sulfonic acid dimethylamide] | 14 µM
O=C(c1cc(Cl)c(O)c(Cl)c1)N1CCOc2cccnc21 [Example 36, (3,5-dichloro-4-hydroxyphenyl)-(2,3-dihydropyrido[3,2-b][1,4]oxazin-4-yl)-methanone] | 16 µM
O=C1CCN(C(=O)c2cc(Cl)c(O)c(Cl)c2)c2ccccc2N1 [Example 37, 5-(3,5-dichloro-4-hydroxybenzoyl)-1,3,4,5-tetrahydrobenzo[b][1,4]diazepin-2-one] | > 50 µM
O=C(c1cc(Cl)cc(Cl)c1O)N1CCOc2ccccc21 [Example 38, (3,5-dichloro-2-hydroxyphenyl)-(2,3-dihydrobenzo[1,4]oxazin-4-yl)-methanone] | 5 µM
O=C(c1ccc(O)c(C(F)(F)F)c1)N1CCOc2ccccc21 [Example 39, (2,3-dihydrobenzo[1,4]oxazin-4-yl)-(4-hydroxy-3-trifluoromethylphenyl)-methanone] | 21 µM
COc1cc(C(=O)N2CCOc3ccccc32)cc(Cl)c1O [Example 40, (3-chloro-4-hydroxy-5-methoxyphenyl)-(2,3-dihydrobenzo[1,4]oxazin-4-yl)-methanone] | > 50 µM
O=C(c1ccc(Cl)c(O)c1)N1CCOc2ccccc21 [Example 41, (4-chloro-3-hydroxyphenyl)-(2,3-dihydrobenzo[1,4]oxazin-4-yl)-methanone] | > 50 µM
O=C(c1cc(Cl)nc(Cl)c1)N1CCOc2ccccc21 [Example 42, (2,6-dichloropyridin-4-yl)-(2,3-dihydrobenzo[1,4]oxazin-4-yl)-methanone] | > 50 µM
O=C(c1ccc([N+](=O)[O-])cc1)N1CCOc2ccccc21 [Example 43, (2,3-dihydrobenzo[1,4]oxazin-4-yl)-(4-nitrophenyl)-methanone] | > 50 µM
O=C(c1cc(Cl)c(O)c(Cl)c1)N1CCOc2ccc(F)cc21 [Example 44, (3,5-dichloro-4-hydroxyphenyl)-(6-fluoro-2,3-dihydrobenzo[1,4]oxazin-4-yl)-methanone] | 31 µM
O=C(O)c1ccccc1C(=O)N1CCOc2ccccc21 [Example 45, 2-(2,3-dihydrobenzo[1,4]oxazine-4-carbonyl)benzoic acid] | > 50 µM
COC(=O)c1ccc(C(=O)N2CCOc3ccccc32)cc1 [Example 46, methyl 4-(2,3-dihydrobenzo[1,4]oxazine-4-carbonyl)benzoate] | > 50 µM
O=C(O)c1ccc(C(=O)N2CCOc3ccccc32)cc1 [Example 47, 4-(2,3-dihydrobenzo[1,4]oxazine-4-carbonyl)benzoic acid] | > 50 µM
COC(=O)c1cccc(C(=O)N2CCOc3ccccc32)c1 [Example 48, methyl 3-(2,3-dihydrobenzo[1,4]oxazine-4-carbonyl)benzoate] | > 50 µM
O=C(O)c1cccc(C(=O)N2CCOc3ccccc32)c1 [Example 49, 3-(2,3-dihydrobenzo[1,4]oxazine-4-carbonyl)benzoic acid] | > 50 µM
O=C(c1cc(Cl)c(O)c(Cl)c1O)N1CCOc2ccccc21 [Example 50, (3,5-dichloro-2,4-dihydroxyphenyl)-(2,3-dihydrobenzo[1,4]oxazin-4-yl)-methanone] | 15 µM
O=C(c1cc(Cl)c(O)c(Cl)c1)N1CCOc2ccc(Cl)cc21 [Example 51, (6-chloro-2,3-dihydrobenzo[1,4]oxazin-4-yl)-(3,5-dichloro-4-hydroxyphenyl)-methanone] | 16 µM
O=C(c1cc(Cl)c(O)c(Cl)c1)N1CCOc2cc(Cl)ccc21 [Example 52, (7-chloro-2,3-dihydrobenzo[1,4]oxazin-4-yl)-(3,5-dichloro-4-hydroxyphenyl)-methanone] | 11 µM
O=C(c1cc(Cl)c(O)c(Cl)c1)N1CCN(C(=O)c2cc(Cl)c(O)c(Cl)c2)c2ccccc21 [Example 53, [4-(3,5-dichloro-4-hydroxybenzoyl)-3,4-dihydro-2H-quinoxalin-1-yl]-(3,5-dichloro-4-hydroxyphenyl)-methanone] | 6 µM
O=C(c1cc(Cl)c(O)c(Cl)c1)N1CCNc2ccccc21 [Example 54, (3,5-dichloro-4-hydroxyphenyl)-(3,4-dihydro-2H-quinoxalin-1-yl)-methanone] | 48 µM
COC(=O)c1ccc2c(c1)N(C(=O)c1cc(Cl)c(O)c(Cl)c1)CCO2 [Example 55, methyl 4-(3,5-dichloro-4-hydroxybenzoyl)-3,4-dihydro-2H-benzo[1,4]oxazine-6-carboxylate] | 19 µM
O=C(c1cc(Cl)c(O)c(Cl)c1)N1CCOc2ccc(CO)cc21 [Example 56, (3,5-dichloro-4-hydroxyphenyl)-(6-hydroxymethyl-2,3-dihydrobenzo[1,4]oxazin-4-yl)-methanone] | > 50 µM
O=C(O)c1ccc2c(c1)N(C(=O)c1cc(Cl)c(O)c(Cl)c1)CCO2 [Example 57, 4-(3,5-dichloro-4-hydroxybenzoyl)-3,4-dihydro-2H-benzo[1,4]oxazine-6-carboxylic acid] | > 50 µM
COC(=O)c1cccc2c1N(C(=O)c1cc(Cl)c(O)c(Cl)c1)CCO2 [Example 58, methyl 4-(3,5-dichloro-4-hydroxybenzoyl)-3,4-dihydro-2H-benzo[1,4]oxazine-5-carboxylate] | 21 µM
COC(=O)c1ccc2c(c1)OCCN2C(=O)c1cc(Cl)c(O)c(Cl)c1 [Example 59, methyl 4-(3,5-dichloro-4-hydroxybenzoyl)-3,4-dihydro-2H-benzo[1,4]oxazine-7-carboxylate] | 8 µM
O=C(O)c1ccc2c(c1)OCCN2C(=O)c1cc(Cl)c(O)c(Cl)c1 [Example 60, 4-(3,5-dichloro-4-hydroxybenzoyl)-3,4-dihydro-2H-benzo[1,4]oxazine-7-carboxylic acid] | > 50 µM
COC(=O)c1cccc2c1OCCN2C(=O)c1cc(Cl)c(O)c(Cl)c1 [Example 61, methyl 4-(3,5-dichloro-4-hydroxybenzoyl)-3,4-dihydro-2H-benzo[1,4]oxazine-8-carboxylate] | 43 µM

The remaining lines, values ahead:

IC50 | SMILES
> 50 µM | O=C(O)c1cccc2c1OCCN2C(=O)c1cc(Cl)c(O)c(Cl)c1 [Example 62, 4-(3,5-dichloro-4-hydroxybenzoyl)-3,4-dihydro-2H-benzo[1,4]oxazine-8-carboxylic acid]
> 50 µM | O=C(c1cc(Cl)cc(Cl)c1)N1CCOc2ccccc21 [Example 63, (3,5-dichlorophenyl)-(2,3-dihydrobenzo[1,4]oxazin-4-yl)-methanone]
6 µM | O=C(c1cc(Cl)c(O)c(Cl)c1)N1c2ccccc2Oc2ccccc21 [Example 64, (3,5-dichloro-4-hydroxyphenyl)-phenoxazin-10-ylmethanone]
14 µM | O=C(c1cc(Cl)c(O)c(Cl)c1)N1CCOc2ccc(-c3ccccc3)cc21 [Example 65, (3,5-dichloro-4-hydroxyphenyl)-(6-phenyl-2,3-dihydrobenzo[1,4]oxazin-4-yl)-methanone]
12 µM | Cc1cc(C)c2c(c1)N(C(=O)c1cc(Cl)c(O)c(Cl)c1)CCO2 [Example 66, (3,5-dichloro-4-hydroxyphenyl)-(6,8-dimethyl-2,3-dihydrobenzo[1,4]oxazin-4-yl)-methanone]
49 µM | O=C(c1cc(Cl)c(O)c(Cl)c1)N1CCOc2ccc([N+](=O)[O-])cc21 [Example 67, (3,5-dichloro-4-hydroxyphenyl)-(6-nitro-2,3-dihydrobenzo[1,4]oxazin-4-yl)-methanone]
27 µM | Nc1ccc2c(c1)N(C(=O)c1cc(Cl)c(O)c(Cl)c1)CCO2 [Example 68, (6-amino-2,3-dihydrobenzo[1,4]oxazin-4-yl)-(3,5-dichloro-4-hydroxyphenyl)-methanone]
21 µM | O=C(c1cc(Br)c(O)c(Br)c1)N1CCOc2ccc([N+](=O)[O-])cc21 [Example 69, (3,5-dibromo-4-hydroxyphenyl)-(6-nitro-2,3-dihydrobenzo[1,4]oxazin-4-yl)-methanone]
20 µM | O=C(c1cc(Cl)c(O)c(Cl)c1)N1CCOc2cc([N+](=O)[O-])ccc21 [Example 70, (3,5-dichloro-4-hydroxyphenyl)-(7-nitro-2,3-dihydrobenzo[1,4]oxazin-4-yl)-methanone]
15 µM | Nc1ccc2c(c1)OCCN2C(=O)c1cc(Cl)c(O)c(Cl)c1 [Example 71, (7-amino-2,3-dihydrobenzo[1,4]oxazin-4-yl)-(3,5-dichloro-4-hydroxyphenyl)-methanone]
13 µM | CS(=O)(=O)Nc1ccc2c(c1)OCCN2C(=O)c1cc(Cl)c(O)c(Cl)c1 [Example 72, N-[4-(3,5-dichloro-4-hydroxybenzoyl)-3,4-dihydro-2H-benzo[1,4]oxazin-7-yl]-methanesulfonamide]
> 50 µM | CC(=O)N1CCN(C(=O)c2cc(Cl)c(O)c(Cl)c2)c2ccccc21 [Example 73, 1-[4-(3,5-dichloro-4-hydroxybenzoyl)-3,4-dihydro-2H-quinoxalin-1-yl]-ethanone]
33 µM | CN1CCN(C(=O)c2cc(Cl)c(O)c(Cl)c2)c2ccccc21 [Example 74, (3,5-dichloro-4-hydroxyphenyl)-(4-methyl-3,4-dihydro-2H-quinoxalin-1-yl)-methanone]
